From the supplement of paper PMC12076712

Key:
Experiment in all cases: pIC50, kinobeads binding competition
Settings in all cases: cell material: Jurkat lysate
PIM3 = PIM3 (UniProt Q86V86)
SNRK = molecular target: T1, SNRK (UniProt Q9NRH2)
T1 sequence (whole entry): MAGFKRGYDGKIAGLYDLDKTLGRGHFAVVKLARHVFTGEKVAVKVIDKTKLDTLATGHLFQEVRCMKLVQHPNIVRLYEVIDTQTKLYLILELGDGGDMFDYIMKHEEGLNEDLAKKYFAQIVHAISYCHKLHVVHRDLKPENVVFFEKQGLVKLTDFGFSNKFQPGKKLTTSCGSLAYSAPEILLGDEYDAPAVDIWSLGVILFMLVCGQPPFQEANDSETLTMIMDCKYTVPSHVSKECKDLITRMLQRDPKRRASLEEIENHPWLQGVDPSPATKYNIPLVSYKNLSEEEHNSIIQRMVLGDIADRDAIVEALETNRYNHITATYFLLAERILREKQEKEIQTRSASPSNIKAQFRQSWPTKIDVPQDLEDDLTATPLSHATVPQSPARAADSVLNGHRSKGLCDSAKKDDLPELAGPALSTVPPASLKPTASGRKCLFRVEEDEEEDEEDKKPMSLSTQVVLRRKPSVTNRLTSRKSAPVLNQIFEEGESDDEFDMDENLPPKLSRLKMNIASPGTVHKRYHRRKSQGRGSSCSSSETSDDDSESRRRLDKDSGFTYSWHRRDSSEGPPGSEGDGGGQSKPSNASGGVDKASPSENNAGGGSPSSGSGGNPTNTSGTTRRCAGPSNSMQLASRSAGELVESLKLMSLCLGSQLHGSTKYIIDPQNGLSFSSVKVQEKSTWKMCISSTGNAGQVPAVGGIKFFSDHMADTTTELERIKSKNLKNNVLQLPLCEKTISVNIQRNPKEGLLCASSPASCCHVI

PDIK1L = PDIK1L (UniProt Q8N165)
Sequence of PDIK1L (Q8N165 whole entry): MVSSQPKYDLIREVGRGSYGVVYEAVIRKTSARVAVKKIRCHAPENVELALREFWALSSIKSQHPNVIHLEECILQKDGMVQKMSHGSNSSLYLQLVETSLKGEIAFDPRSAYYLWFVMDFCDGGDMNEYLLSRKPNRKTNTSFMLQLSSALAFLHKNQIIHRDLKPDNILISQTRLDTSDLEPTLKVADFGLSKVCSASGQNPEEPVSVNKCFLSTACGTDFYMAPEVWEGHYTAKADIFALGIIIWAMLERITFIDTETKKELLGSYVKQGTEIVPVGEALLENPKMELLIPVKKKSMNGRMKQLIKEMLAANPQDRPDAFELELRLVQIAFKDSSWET

RPS6KA4 = RPS6KA4 (UniProt O75676)
Sequence of RPS6KA4 (O75676 whole entry, looked up): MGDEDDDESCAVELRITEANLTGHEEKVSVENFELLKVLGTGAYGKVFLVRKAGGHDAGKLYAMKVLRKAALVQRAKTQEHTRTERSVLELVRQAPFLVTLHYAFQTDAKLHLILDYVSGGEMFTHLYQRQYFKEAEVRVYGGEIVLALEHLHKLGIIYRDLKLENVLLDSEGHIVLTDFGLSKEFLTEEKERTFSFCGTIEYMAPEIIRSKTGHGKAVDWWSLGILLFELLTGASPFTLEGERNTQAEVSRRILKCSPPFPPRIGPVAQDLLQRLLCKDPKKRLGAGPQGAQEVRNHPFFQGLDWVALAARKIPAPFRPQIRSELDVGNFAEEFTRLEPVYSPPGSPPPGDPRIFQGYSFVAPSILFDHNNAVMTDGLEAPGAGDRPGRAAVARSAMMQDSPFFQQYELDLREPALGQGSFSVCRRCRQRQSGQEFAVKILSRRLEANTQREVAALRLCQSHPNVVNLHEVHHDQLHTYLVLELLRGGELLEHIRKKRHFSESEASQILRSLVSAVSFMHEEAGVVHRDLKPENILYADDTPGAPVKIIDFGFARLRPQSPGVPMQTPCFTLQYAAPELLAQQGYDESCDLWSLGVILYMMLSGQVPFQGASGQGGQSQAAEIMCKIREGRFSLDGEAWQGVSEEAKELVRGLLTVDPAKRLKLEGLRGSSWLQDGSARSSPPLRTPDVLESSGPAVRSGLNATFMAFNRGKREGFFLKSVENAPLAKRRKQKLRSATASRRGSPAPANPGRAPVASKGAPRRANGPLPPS

MAPK11 = MAPK11 (UniProt Q15759)
PKMYT1 = molecular target: T2, PKMYT1 (UniProt Q99640)
T2 sequence (whole entry): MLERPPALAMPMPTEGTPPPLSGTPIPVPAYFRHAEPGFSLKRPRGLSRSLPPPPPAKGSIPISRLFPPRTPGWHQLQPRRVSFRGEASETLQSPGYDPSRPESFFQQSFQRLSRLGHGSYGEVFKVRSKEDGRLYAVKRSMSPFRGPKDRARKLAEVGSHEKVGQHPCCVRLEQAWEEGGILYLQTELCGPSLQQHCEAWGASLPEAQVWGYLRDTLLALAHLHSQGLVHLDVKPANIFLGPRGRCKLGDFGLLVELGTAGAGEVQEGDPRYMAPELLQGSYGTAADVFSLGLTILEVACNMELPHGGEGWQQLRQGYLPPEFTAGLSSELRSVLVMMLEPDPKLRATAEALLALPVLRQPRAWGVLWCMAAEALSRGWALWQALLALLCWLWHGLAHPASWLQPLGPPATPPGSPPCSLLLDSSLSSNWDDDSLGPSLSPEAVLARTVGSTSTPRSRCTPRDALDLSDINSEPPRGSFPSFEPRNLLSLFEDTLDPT

BRSK1 = molecular target: T3, BRSK1 (UniProt Q8TDC3)
T3 sequence (whole entry): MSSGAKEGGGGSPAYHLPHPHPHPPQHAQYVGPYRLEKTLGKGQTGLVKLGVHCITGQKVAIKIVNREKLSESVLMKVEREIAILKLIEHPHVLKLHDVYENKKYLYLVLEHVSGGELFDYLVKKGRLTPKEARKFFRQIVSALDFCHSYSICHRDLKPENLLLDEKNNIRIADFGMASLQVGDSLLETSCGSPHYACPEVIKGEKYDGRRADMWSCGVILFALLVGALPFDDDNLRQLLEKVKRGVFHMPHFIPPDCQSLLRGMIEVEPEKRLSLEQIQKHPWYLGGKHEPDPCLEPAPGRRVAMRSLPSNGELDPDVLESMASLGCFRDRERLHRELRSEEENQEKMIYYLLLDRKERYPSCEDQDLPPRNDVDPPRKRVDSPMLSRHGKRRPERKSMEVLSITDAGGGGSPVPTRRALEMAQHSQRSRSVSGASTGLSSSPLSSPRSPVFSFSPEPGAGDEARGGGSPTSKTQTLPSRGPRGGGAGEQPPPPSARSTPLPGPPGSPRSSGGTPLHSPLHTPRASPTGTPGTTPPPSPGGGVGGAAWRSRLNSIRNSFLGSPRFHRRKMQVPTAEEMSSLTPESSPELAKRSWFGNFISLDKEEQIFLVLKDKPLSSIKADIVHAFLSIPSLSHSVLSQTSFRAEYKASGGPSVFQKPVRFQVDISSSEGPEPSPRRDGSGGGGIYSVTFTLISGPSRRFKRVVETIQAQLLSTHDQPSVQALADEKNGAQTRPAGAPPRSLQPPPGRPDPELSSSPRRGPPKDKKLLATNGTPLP

MAST4 = MAST4 (UniProt O15021)
Sequence of MAST4 (O15021 whole entry): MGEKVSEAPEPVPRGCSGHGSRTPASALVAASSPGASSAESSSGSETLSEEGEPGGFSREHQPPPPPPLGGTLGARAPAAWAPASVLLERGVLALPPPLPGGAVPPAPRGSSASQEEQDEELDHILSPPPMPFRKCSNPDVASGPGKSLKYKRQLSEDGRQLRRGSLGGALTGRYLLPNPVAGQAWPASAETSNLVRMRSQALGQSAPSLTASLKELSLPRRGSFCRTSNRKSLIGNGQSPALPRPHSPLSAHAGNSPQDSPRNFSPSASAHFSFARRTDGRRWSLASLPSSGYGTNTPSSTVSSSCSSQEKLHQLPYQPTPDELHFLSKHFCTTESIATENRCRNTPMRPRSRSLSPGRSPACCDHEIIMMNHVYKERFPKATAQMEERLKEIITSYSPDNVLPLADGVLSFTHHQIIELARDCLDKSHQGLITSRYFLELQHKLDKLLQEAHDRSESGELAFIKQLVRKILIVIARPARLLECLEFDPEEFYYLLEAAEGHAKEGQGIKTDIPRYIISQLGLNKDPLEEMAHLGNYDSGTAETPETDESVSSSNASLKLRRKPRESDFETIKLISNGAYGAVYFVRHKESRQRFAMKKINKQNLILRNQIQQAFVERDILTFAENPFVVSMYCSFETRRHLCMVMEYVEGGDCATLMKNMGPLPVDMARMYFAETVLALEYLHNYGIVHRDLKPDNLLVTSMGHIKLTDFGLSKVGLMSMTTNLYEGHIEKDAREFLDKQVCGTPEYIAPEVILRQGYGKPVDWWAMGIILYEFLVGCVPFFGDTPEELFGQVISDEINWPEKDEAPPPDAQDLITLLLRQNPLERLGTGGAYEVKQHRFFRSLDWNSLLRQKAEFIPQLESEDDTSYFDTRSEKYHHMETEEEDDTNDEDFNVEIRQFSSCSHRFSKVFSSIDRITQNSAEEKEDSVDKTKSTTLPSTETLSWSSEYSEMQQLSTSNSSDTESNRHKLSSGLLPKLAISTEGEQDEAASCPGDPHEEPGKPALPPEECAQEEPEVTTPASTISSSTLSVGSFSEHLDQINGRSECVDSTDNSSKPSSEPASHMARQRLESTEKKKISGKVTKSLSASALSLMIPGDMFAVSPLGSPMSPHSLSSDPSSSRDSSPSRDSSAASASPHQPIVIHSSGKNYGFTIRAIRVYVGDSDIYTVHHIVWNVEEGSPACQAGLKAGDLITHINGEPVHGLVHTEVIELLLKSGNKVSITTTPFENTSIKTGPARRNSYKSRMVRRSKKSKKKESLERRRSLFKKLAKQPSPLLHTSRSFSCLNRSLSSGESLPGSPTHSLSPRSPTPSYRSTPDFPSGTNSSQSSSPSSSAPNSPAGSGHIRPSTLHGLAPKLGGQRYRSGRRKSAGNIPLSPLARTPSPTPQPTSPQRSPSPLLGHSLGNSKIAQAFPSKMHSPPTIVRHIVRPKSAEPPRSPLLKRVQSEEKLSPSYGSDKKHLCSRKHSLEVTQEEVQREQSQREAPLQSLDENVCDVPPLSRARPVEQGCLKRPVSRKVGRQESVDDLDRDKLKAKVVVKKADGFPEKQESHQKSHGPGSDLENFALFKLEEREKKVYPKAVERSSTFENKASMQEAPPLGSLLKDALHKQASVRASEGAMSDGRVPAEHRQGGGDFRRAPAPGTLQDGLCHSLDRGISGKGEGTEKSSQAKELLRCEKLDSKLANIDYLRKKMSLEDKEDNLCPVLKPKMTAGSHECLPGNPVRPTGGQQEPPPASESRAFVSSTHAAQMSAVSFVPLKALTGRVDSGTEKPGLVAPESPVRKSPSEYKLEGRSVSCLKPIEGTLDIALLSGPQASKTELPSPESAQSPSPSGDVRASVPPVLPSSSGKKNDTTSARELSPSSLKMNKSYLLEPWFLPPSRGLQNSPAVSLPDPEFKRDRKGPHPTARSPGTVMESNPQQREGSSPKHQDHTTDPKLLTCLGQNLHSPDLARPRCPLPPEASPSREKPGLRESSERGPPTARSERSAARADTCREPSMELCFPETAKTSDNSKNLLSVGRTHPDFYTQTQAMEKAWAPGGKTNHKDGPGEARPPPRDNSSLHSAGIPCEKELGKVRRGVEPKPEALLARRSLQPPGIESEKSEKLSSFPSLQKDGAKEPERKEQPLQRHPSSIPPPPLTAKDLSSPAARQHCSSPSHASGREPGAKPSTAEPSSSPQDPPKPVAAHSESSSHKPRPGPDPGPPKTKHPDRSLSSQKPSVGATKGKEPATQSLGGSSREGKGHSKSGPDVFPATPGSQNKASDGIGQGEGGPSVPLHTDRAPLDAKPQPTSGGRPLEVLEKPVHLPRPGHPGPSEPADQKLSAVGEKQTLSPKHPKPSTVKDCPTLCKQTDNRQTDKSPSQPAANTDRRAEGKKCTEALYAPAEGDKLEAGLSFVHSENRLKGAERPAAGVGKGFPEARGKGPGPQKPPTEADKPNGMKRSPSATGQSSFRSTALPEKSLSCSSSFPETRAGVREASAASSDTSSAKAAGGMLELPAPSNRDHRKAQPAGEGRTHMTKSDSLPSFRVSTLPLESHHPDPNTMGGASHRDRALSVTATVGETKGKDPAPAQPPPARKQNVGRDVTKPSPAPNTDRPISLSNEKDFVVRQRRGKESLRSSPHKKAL

UniProt Q8NEB9 = molecular target: UniProt Q8NEB9
Sequence of UniProt Q8NEB9 (Q8NEB9 whole entry): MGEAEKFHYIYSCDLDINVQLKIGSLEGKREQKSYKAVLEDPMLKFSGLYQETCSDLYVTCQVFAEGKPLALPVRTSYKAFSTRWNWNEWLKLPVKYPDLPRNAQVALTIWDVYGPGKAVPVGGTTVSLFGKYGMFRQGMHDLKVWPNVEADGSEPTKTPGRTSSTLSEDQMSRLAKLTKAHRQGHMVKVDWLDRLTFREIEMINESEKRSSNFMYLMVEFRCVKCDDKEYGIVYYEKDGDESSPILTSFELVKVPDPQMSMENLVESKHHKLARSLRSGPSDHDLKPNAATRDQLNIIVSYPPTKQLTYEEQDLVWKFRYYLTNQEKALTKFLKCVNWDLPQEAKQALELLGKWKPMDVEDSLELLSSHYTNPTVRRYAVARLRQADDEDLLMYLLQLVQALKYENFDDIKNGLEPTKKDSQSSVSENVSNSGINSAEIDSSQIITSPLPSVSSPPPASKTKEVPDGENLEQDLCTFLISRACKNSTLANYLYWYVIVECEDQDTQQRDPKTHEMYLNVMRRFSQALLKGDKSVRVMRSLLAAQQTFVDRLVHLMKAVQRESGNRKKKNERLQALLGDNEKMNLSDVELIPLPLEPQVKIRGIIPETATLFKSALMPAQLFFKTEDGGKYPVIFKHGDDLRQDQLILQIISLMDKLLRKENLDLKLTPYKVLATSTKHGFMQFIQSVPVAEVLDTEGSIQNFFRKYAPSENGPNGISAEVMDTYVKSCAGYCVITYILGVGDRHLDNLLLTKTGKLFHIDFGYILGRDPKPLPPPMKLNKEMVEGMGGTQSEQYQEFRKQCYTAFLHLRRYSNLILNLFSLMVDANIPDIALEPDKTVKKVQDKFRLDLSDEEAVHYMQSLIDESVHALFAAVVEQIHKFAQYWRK

MELK = MELK (UniProt Q14680)

Measured: pIC50

CCc1cnn2c(NCc3ccc[n+]([O-])c3)cc(N3CCCC[C@H]3CCO)nc12 [dinaciclib]
< 4.52: all assays above
